{"source": "patent US10524472B2", "about": "“Elicitor peptides having disrupted hypersensitive response box and use thereof” (Plant Health Care, Inc., priority 2014, dated 2020)", "key": {"[1]": {"system": "soybean seeds", "assay": "Root & shoot growth analysis after seed soak, soy", "type": "in vivo", "details": "for shoot growth (Table 20): p14a soy at 0.2 μg/ml; for Root (root growth index, percentage increase over untreated control) / Shoot (shoot length, percentage increase over untreated control): soy, 12-14 days", "procedure": "(§1) Peptides were tested for biological effects on the allocation of growth resources to the shoot (above ground) and root (below ground). Peptides were dissolved at 0.2, 2, or 5 μg/ml in a total volume of 100 ml deionized water. Corn or soybean seeds were then soaked for one hour in the peptide solution. Untreated control (UTC) plants were soaked in deionized water. Clear plastic 300 ml beverage cups (Solo®, Dart Container Corporation) were prepared for planting by marking the bottom with a cross, dividing the bottom into four equal quadrants. The cups were then filled with Sunshine Mix #1 soil (SunGro Horticulture) sieved to ¼″. 100 ml of water was added to the soil. Treated seeds were then planted by pressing the seed lightly into the top of the soil. The seeds were then covered with an additional 50 ml of loose soil. Seeds were allowed to germinate and grow for 12-14 days.\nThe length of the shoot was measured as the distance from the soil to the lightly stretched tip of the highest leaf for each plant. […] Stunting was defined as lacking a fully expanded true leaf at time of data collection or having an expanded true leaf judged by eye to be <½ the average leaf area of the treatment group. Generally, 30 seeds were planted per treatment group and 15-25 plants were used for data collection.\n(§2) Root growth was estimated by counting the number of times that a primary root crosses the quadrant marks on the bottom of the cup. These were often observed along the bottom circumference of the cup, although some were visible along the side of the container and were counted as if crossing a vertical extension of the quadrant line. This number was divided by 4 to produce a root growth index.\nEach number indicates the percentage increase over the untreated control values."}, "[2]": {"system": "Soy plants", "assay": "Growth tests after foliar spray, soy", "type": "in vivo", "details": "for growth, dry biomass and fresh mass (text summary of Table 21): foliar spray; for Dry biomass increase (%) / Growth increase (%) / Fresh mass increase (%): soy, 14 days", "procedure": "(§3) Soy seeds (or corn seeds, as indicated) were planted in flats with 2 seeds per cell within the flat at a greenhouse facility. The seeds were allowed to germinate and the smaller plant is culled, leaving one plant per cell. Once the first true leaves are fully expanded and the second leaves are beginning to expand, the plants were initially measured for height. This was performed by stretching the highest leaf upward and measuring the distance to the soil. Peptides were dissolved in water at the indicated concentrations (Table 21 below). The plants were then treated with a foliar spray using widely available spray bottles until liquid was dripping from the leaves. Six flats of 14 plants each were treated per condition (peptide or control). Designated untreated control plants were sprayed with water. The plants were allowed to grow for 14 days. The height of the plants was again measured and compared to the original height to quantify growth. Finally, the plants were harvested by removing the shoots (all above-ground material). For some experiments, this was weighed upon harvesting to determine the fresh mass (including water weight). The shoots were then dried at 70° C. for 72 hours, and again weighed to determine dry biomass. Although this method uses a similar measure (growth) as in Example 3 above, the treatment method is different (seed soak vs. foliar spray). As a result, the experimental outcomes may diverge."}, "[3]": {"system": "Corn seeds", "assay": "Root & shoot growth analysis after seed soak, corn", "type": "in vivo", "details": "seed soak 0.2 μg/ml, 12-14 days", "procedure": "as §1\nThe length of the shoot was measured as the distance from the soil to the lightly stretched tip of the highest leaf for each plant. […]\nas §2, with “This number was divided by 4 to produce a root growth index.” left out"}, "[4]": {"system": "tobacco mosaic virus (TMV)", "assay": "Induction of resistance to tobacco mosaic virus in tobacco", "type": "in vivo", "details": "for Effectiveness Covered (%) (decline in TMV lesions vs UTC, systemic response) / Effectiveness Uncovered (%) (decline in TMV lesions vs UTC, local response): TMV 3 days post-treatment, scored 3 days after inoculation"}, "[5]": {"system": "tobacco plants (leaf tissue discs)", "assay": "Peroxide response, ferric-xylenol orange assay on tobacco leaf discs", "type": "cell-based", "details": "0.5 ug/ml peptide, one hour, absorbance at 595 nm vs blank", "procedure": "(§4) The ferric-xylenol orange complex assay for hydrogen peroxide (Gay et al., Analytical Biochemistry 273:149-55 (1999), which is hereby incorporated by reference in its entirety) was used to determine peroxide production by plant leaf tissue. Briefly, reagent A was prepared by mixing 10 mg of ferrous ammonium sulfate with 133 uL of sulfuric acid in a total volume of 1 mL with water. Reagent B was prepared by mixing 2 g of sorbitol with 9.34 mg of xylenol orange in 80 ml of water. 1M hydrochloric acid was slowly added until the solution turned yellow. The solution was then diluted with water to a total volume of 100 mL, and stored in a dark bottle at 4° C.\n(§5) Leaves from either tobacco plants (plants grown to 6 true leaves) or soy plants (plants grown to 6 true leaves) were used for the assay. The leaf was first removed from the plant and placed on a paper towel. 0.5 cm leaf tissue circles were then removed from the leaf using a leather punch tool. These discs were then placed into the wells of a 96-well plate. […] of water was added to each disc. The plate was covered with parafilm and rested for 12 hours in the dark. The excess water was then removed and the wells washed with an additional 250 uL of water. The washes were then removed from the wells and replaced with 105 uL of a 0.5 ug/ml solution of peptide in water or water blank, generally in quadruplicate. Where peptide solubility was a problem, pH buffer was added to both the blank and peptide samples. Leaf discs were incubated with the peptides for one hour under fluorescent lighting. 50 ul of the solution from each leaf sample was removed to a new well for chemical analysis.\n(§6) Just prior to analysis, reagents A and B were freshly mixed in a 1:100 ratio to produce the assay reagent. 200 ul of this mixture was added to each well containing 50 ul of leaf-treated solution. The plate was incubated in the dark for 20 minutes and the absorbance at 595 nm was detected. Results were analyzed using a two-tailed Student's T-test. The results were divided into several response classes. XR++ indicated a positive response with absorbance >0.05 units above the negative control and a Student's T-test p<0.05. XR+ indicated an absorbance <0.05 units above the blank and a Student's T-test p<0.05. XR weak indicated a response >0.02 units above the negative control with a p-value that was not significant. XR− indicated an absorbance within 0.02 units of the negative control. It should be noted that there can be significant biological variability in the peroxide response due to plant age, location of the disc within the leaf, and other factors. As a result, p-values from the T-test are a guide and not an absolute inclusion criterion."}, "[6]": {"system": "soy plants (leaf tissue discs)", "assay": "Peroxide response, ferric-xylenol orange assay on soy leaf discs", "type": "cell-based", "details": "0.5 ug/ml peptide, one hour, absorbance at 595 nm vs blank", "procedure": "as §4, §5, §6"}, "[7]": {"system": "corn plants", "assay": "Growth tests after foliar spray, corn", "type": "in vivo", "procedure": "as §3"}, "[8]": {"details": "foliar spray 2.0 ug/ml, 14 days"}}, "note": "Marks after values point to notes of the source that are not given here.", "data": [{"sequence": "SQGISEKQADQLLSQLIQALLQP (P4-14S-9A)", "values": [{"measurement": "shoot growth (Table 20)", "setting": "[1]; seed soak", "value": "increased shoot growth"}, {"measurement": "Root (root growth index, percentage increase over untreated control)", "setting": "[1]; seed soak 2.0 μg/ml", "value": 4.3, "unit": "%"}, {"measurement": "Shoot (shoot length, percentage increase over untreated control)", "setting": "[1]; seed soak 2.0 μg/ml", "value": 5.0, "unit": "%"}, {"measurement": "Root (root growth index, percentage increase over untreated control)", "setting": "[1]; seed soak 5.0 μg/ml", "value": 2.5, "unit": "%"}, {"measurement": "Shoot (shoot length, percentage increase over untreated control)", "setting": "[1]; seed soak 5.0 μg/ml", "value": 6.5, "unit": "%*"}, {"measurement": "growth, dry biomass and fresh mass (text summary of Table 21)", "setting": "[2]", "value": "increases in growth and dry biomass"}, {"measurement": "Dry biomass increase (%)", "setting": "[2]; foliar spray 2.0 ug/ml", "value": 10.8, "unit": "%"}, {"measurement": "Growth increase (%)", "setting": "[2]; foliar spray 2.0 ug/ml", "value": 11.9, "unit": "%"}, {"measurement": "Root (root growth index, percentage increase over untreated control)", "setting": "[3]", "value": 4.8, "unit": "%"}, {"measurement": "Shoot (shoot length, percentage increase over untreated control)", "setting": "[3]", "value": 3.9, "unit": "%*"}, {"measurement": "TMV response / effectiveness against TMV infection (summary of Table 22)", "setting": "[4]; foliar spray", "value": "produced the best results"}, {"measurement": "Effectiveness Covered (%) (decline in TMV lesions vs UTC, systemic response)", "setting": "[4]; spray 5.0 ug/ml", "value": "86* %"}, {"measurement": "Effectiveness Uncovered (%) (decline in TMV lesions vs UTC, local response)", "setting": "[4]; spray 5.0 ug/ml", "value": "84* %"}]}, {"sequence": "QAGPQSANKTGNVDDANNQDPEQALEQLLEDLV (P14-22E,26E)", "values": [{"measurement": "Peroxide Response, Tobacco", "setting": "[5]", "value": "Weak+"}, {"measurement": "Effectiveness Covered (%) (decline in TMV lesions vs UTC, systemic response)", "setting": "[4]; spray 20 ug/ml", "value": 62, "unit": "%"}, {"measurement": "Effectiveness Uncovered (%) (decline in TMV lesions vs UTC, local response)", "setting": "[4]; spray 20 ug/ml", "value": "74* %"}]}, {"sequence": "QAGPQSANKTGNVDDANNQDPLQALLQLLEDLV (P14-22L,26L)", "values": [{"measurement": "Peroxide Response, Soy", "setting": "[6]", "value": "Weak+"}, {"measurement": "Effectiveness Covered (%) (decline in TMV lesions vs UTC, systemic response)", "setting": "[4]; spray 20 ug/ml", "value": "67* %"}, {"measurement": "Effectiveness Uncovered (%) (decline in TMV lesions vs UTC, local response)", "setting": "[4]; spray 20 ug/ml", "value": "65* %"}]}, {"sequence": "QAGPQSANKTGNVDDANNQDPLQALEQLLEDLV (P14-22L,26E)", "values": [{"measurement": "Peroxide Response, Tobacco", "setting": "[5]", "value": "Weak+"}, {"measurement": "Effectiveness Covered (%) (decline in TMV lesions vs UTC, systemic response)", "setting": "[4]; spray 20 ug/ml", "value": "91* %"}, {"measurement": "Effectiveness Uncovered (%) (decline in TMV lesions vs UTC, local response)", "setting": "[4]; spray 20 ug/ml", "value": "70* %"}]}, {"sequence": "SEEELQQLLKLFSEIL (P3-5)", "values": [{"measurement": "Peroxide Response, Tobacco", "setting": "[5]", "value": "Weak +"}, {"measurement": "Effectiveness Covered (%) (decline in TMV lesions vs UTC, systemic response)", "setting": "[4]; spray 10 ug/ml", "value": "94* %"}, {"measurement": "Effectiveness Uncovered (%) (decline in TMV lesions vs UTC, local response)", "setting": "[4]; spray 10 ug/ml", "value": 66, "unit": "%"}]}, {"sequence": "NQGISEKQLDQLLTQLI (P1-29)", "values": [{"measurement": "growth benefit in corn", "setting": "[7]; foliar spray", "value": "modest growth benefit"}, {"measurement": "Dry biomass increase (%)", "setting": "[7]; [8]", "value": 5.7, "unit": "%"}, {"measurement": "Fresh mass increase (%)", "setting": "[7]; [8]", "value": 5.1, "unit": "%"}, {"measurement": "Growth increase (%)", "setting": "[7]; [8]", "value": 7.8, "unit": "%"}, {"measurement": "Effectiveness Covered (%) (decline in TMV lesions vs UTC, systemic response)", "setting": "[4]; spray 10 ug/ml", "value": 18, "unit": "%"}, {"measurement": "Effectiveness Uncovered (%) (decline in TMV lesions vs UTC, local response)", "setting": "[4]; spray 10 ug/ml", "value": 44, "unit": "%"}]}, {"sequence": "SQGISEKQLDQLDSQLIQALLQP (P4-14S-13D)", "values": [{"measurement": "Peroxide Response, Tobacco", "setting": "[5]", "value": "Weak+"}]}, {"sequence": "ANNQDPMQALMQLLEDLV (P14a)", "values": [{"measurement": "root growth (text summary of Table 20)", "setting": "[1]; seed soak", "value": "Increased root growth"}, {"measurement": "shoot growth (Table 20)", "setting": "[1]; seed soak", "value": "increased shoot growth"}, {"measurement": "Root (root growth index, percentage increase over untreated control)", "setting": "[1]; seed soak 0.2 μg/ml", "value": "−2.7", "unit": "%"}, {"measurement": "Shoot (shoot length, percentage increase over untreated control)", "setting": "[1]; seed soak 0.2 μg/ml", "value": 8.7, "unit": "%*"}, {"measurement": "Root (root growth index, percentage increase over untreated control)", "setting": "[1]; seed soak 5.0 μg/ml", "value": 10.3, "unit": "%*"}, {"measurement": "Shoot (shoot length, percentage increase over untreated control)", "setting": "[1]; seed soak 5.0 μg/ml", "value": "−3.5", "unit": "%"}, {"measurement": "growth, dry biomass and fresh mass (text summary of Table 21)", "setting": "[2]", "value": "increases for all 3 measures"}, {"measurement": "growth, dry biomass and fresh mass (text summary of Table 21)", "setting": "[2]; listed as p14a", "value": "increases in growth and dry biomass"}, {"measurement": "Dry biomass increase (%)", "setting": "[2]; foliar spray 0.2 ug/ml", "value": 12.6, "unit": "%"}, {"measurement": "Fresh mass increase (%)", "setting": "[2]; foliar spray 0.2 ug/ml", "value": 46.8, "unit": "%"}, {"measurement": "Growth increase (%)", "setting": "[2]; foliar spray 0.2 ug/ml", "value": 14.7, "unit": "%"}, {"measurement": "Dry biomass increase (%)", "setting": "[2]; foliar spray 2.0 ug/ml", "value": 11.0, "unit": "%"}, {"measurement": "Fresh mass increase (%)", "setting": "[2]; foliar spray 2.0 ug/ml", "value": 57.9, "unit": "%"}, {"measurement": "Growth increase (%)", "setting": "[2]; foliar spray 2.0 ug/ml", "value": 3.4, "unit": "%"}, {"measurement": "Dry biomass increase (%)", "setting": "[2]; foliar spray 5.0 ug/ml", "value": 10.6, "unit": "%"}, {"measurement": "Fresh mass increase (%)", "setting": "[2]; foliar spray 5.0 ug/ml", "value": 83.3, "unit": "%"}, {"measurement": "Growth increase (%)", "setting": "[2]; foliar spray 5.0 ug/ml", "value": 8.9, "unit": "%"}]}]}
